Laboratory results from ChEMBL document CHEMBL1201862, “PubChem BioAssay data set” (2004).
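Following 48 hours of exposure in 96-well plates, responses at five concentrations were used to interpolate endpoints linearly. At the GI50, growth is halved.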 Calls of active or inactive are those of the source. Cut-off read from the data, not from the text of the source: active = GI50 up to about 1.1 µM and inactive = higher.

Tests used:
Assay in all cases: inhibition of tumour cell growth, NCI panel, 48 h
[1] = tested on: MDA-MB-435
[2] = tested on: NCI-H460
[3] = tested on: DMS-273
[4] = tested on: SW-620
[5] = tested on: SNB-78
[6] = tested on: PC-3
[7] = tested on: UACC-257
[8] = tested on: HOP-62
[9] = tested on: M19-MEL
[10] = tested on: MDA-N
[11] = tested on: BT-549
[12] = tested on: DLD-1
[13] = tested on: TK-10
[14] = tested on: NCI/ADR-RES
[15] = tested on: SR
[16] = tested on: SNB-19
[17] = tested on: SK-MEL-2
[18] = tested on: A549
[19] = tested on: MDA-MB-231
[20] = tested on: DU-145

Measured: GI50

CC1(C)C(=O)/C=C\C(=O)C(C)(C)C2=CC=C(O2)C(C)(C)C(=O)C(Br)C(Br)C(=O)C(C)(C)C2=CC=C1O2 (stereo not given)
inactive: [1] 34.4 µM | [2] > 100 µM | [3] 33.3 µM | [4] 7.4 µM | [5] 41.8 µM | [6] > 100 µM | [7] 83.8 µM | [8] > 100 µM | [9] 53.7 µM | [10] > 45 µM | [11] 21.7 µM | [12] 13.6 µM | [13] > 100 µM | [14] 23.2 µM | [15] 2.12 µM | [16] > 100 µM | [17] 99.1 µM | [18] > 100 µM | [19] 27.4 µM | [20] > 100 µM
